# Values quoted from earlier work in patent US20240401031A1, “Platform Using iPSC-Derived Cardiomyocytes Carrying Gene Variants as Models of Cardiac Disease and Drug-Response” (SRI INTERNATIONAL, priority 2021, published 2024).
# Conditions: source CredibleMeds
row,Compound,Risk (Torsade de Pointes)
1,NS(=O)(=O)c1cc2c(cc1C(F)(F)F)NC(Cc1ccccc1)NS2(=O)=O (stereo not drawn) [Bendroflumethiazide],(CR)
2,CO[C@@H]1[C@H](N(C)C(=O)c2ccccc2)C[C@H]2O[C@]1(C)n1c3ccccc3c3c4c(c5c6ccccc6n2c5c31)C(=O)NC4 [Midostaurin],(PR)
3,CCn1cc(C(=O)O)c(=O)c2cc(F)c(N3CCNCC3)cc21 [Norfloxacin],(PR)
4,CN[C@H](C)Cc1ccccc1 [Levomethamphetamine],(SR)
5,[Li] [Lithium],(PR)
6,NCCc1ccc(O)c(O)c1 [Dopamine],(SR)
7,CNCCCC12CCC(c3ccccc31)c1ccccc12 [Maprotiline],(PR)
8,O=C(O)c1cn(C2CC2)c2cc(N3CCNCC3)c(F)cc2c1=O [Ciprofloxacin],(KR)
9,CN1CC[C@@H](NC(=O)Nc2ccc(C#N)cc2)C[C@@H]1c1nc2ccccc2[nH]1 [Glasdegib],(PR)
10,Cc1ccccc1N1C(=O)c2cc(S(N)(=O)=O)c(Cl)cc2NC1C (stereo not drawn) [Metolazone],(CR)
11,COc1cc2c(cc1OC)CC(=O)N(CCCN(C)C[C@H]1Cc3cc(OC)c(OC)cc31)CC2 [Ivabradine],(CR)
12,CN1CCN(C2=Nc3ccccc3Sc3ccc(Cl)cc32)CC1 [Clotiapine],(PR)
13,CCN1CCCC1CNC(=O)c1cc(S(=O)(=O)CC)ccc1OC (stereo not drawn) [Sultopride],(KR)
14,C[C@@H]1CN(c2c(F)c(N)c3c(=O)c(C(=O)O)cn(C4CC4)c3c2F)C[C@H](C)N1 [Sparfloxacin],(KR)
15,CC[C@H]1OC(=O)[C@H](C)C(=O)[C@H](C)[C@@H](O[C@@H]2O[C@H](C)C[C@H](N(C)C)[C@H]2O)[C@](C)(OC)C[C@@H](C)C(=O)[C@H](C)[C@H]2N(CCCCn3cnc(-c4cccnc4)c3)C(=O)O[C@]12C [Telithromycin],(PR)
